Experimental data reported in PMC7956567, “Aqueous Solubility of Organic Compounds for Flow Battery Applications: Symmetry and Counter Ion Design to Avoid Low-Solubility Polymorphs” (Molecules, 2021).
Values after ≈ are worked out from the molar mass of the structure shown. Values joined by “and” are separate entries in the source; they are usually repeats but may differ in a detail not shown here. Equal entries are not always repeated. Structures can show the parent of a compound that is named as a salt. One block for each compound: values may come before it.

Assays:
[1] = Solubility by NMR method with imidazole as internal standard; type: physicochemical
Description: (§1) Figure 3 illustrates the two methods used to determine solubility. The first method was gravimetry which required a higher amount of analyte to reduce any error arising from possible co-crystalized compounds. This method is easy to realize without the need for high-tech equipment, and its result is also a reference for the other method performed by NMR spectroscopy. The NMR method required only a small quantity of the analyte and was more accurate as no co-crystalized compounds were counted in its homogeneous solution phase.
The NMR spectra used to determine the solubility were recorded with a known amount of imidazole as the internal standard.
^1H NMR spectra were recorded in DMSO-d6 or CDCl3 solution at room temperature, on a Varian Unity Inova 500 spectrometer (Bruker Corp. Oxford, UK) (500 and 125 MHz for ^1H NMR and APT-NMR spectra, respectively), with the residual solvent signal as the lock and imidazole as the internal standard (only for solubility determination). Chemical shifts (δ) and coupling constants (J) are given in ppm and Hz, respectively.

[2] = design: method as in doi:10.1149/1945-7111/ab7550; settings: water; disodium salts; cited from earlier work
Solubility by gravimetry = type: physicochemical; settings: aqueous buffer, thermodynamic from solid, 1 M sulfuric acid, first isolated polymorph
Description: as §1

[3] = 1 M acid, counter ion PO3 3− (phosphate), aqueous buffer, thermodynamic from solid, 1 M acid, counter ion PO3 3− [sic] (phosphate), read-out: Solubility in 1 M acid, PO3 3−
[4] = 1 M sulfuric acid, aqueous buffer, thermodynamic from solid, 1 M sulfuric acid, counter ion SO4 2−, final (more stable) polymorph, read-out: Solubility in 1 M acid, SO4 2−

Compound: 2,3-dimethyl-5-[(morpholin-4-yl)methyl]benzene-1,4-diol [MMHQ]
Solubility in 1 M acid, ClO4− ([1]; 1 M acid, counter ion ClO4−): 20 mM
Solubility in 1 M acid, Cl− ([1]; 1 M acid, counter ion Cl−, NMR method, validated by gravimetric analysis): 0.07 ^1 M
Solubility in 1 M acid, PO3 3− ([1]; 1 M acid, counter ion PO3 3− [sic] (phosphate)): 0.48 M
Solubility in 1 M acid, SO4 2− ([1]; 1 M sulfuric acid, counter ion SO4 2−, final (more stable) polymorph): 480 mM

solubility [1, 3]: 550 mM (≈ 185 mg/mL)
solubility [1, 4]: 440 mM (≈ 148 mg/mL)
Compound: Cc1c(O)c(C)c(CN2CCOCC2)c(O)c1CN1CCOCC1 [asym-DDHQ, 2,6-dimethyl-3,5-bis[(morpholin-4-yl)methyl]benzene-1,4-diol]

Compound: O=C1c2ccc(S(=O)(=O)[O-])cc2C(=O)c2ccc(S(=O)(=O)[O-])cc21.[Na+].[Na+] [2,6-AQDSNa2, 9,10-dioxo-9,10-dihydroanthracene-2,6-disulfonic acid disodium salt, reference compound]
Aqueous solubility [2]: below 0.1 M
solubility ([1]; water, disodium salt, NMR method with imidazole as internal standard, read-out: Aqueous solubility): 40 mM

solubility [1, 3]: 400 mM (≈ 135 mg/mL)
solubility [1, 4]: 60 mM (≈ 20.2 mg/mL)
solubility ([1]; 1 M sulfuric acid, aqueous buffer, thermodynamic from solid, 1 M sulfuric acid, freshly obtained product, first polymorph, NMR method, read-out: Solubility of first polymorph in 1 M sulfuric acid): 240 mM (≈ 80.7 mg/mL)
Compound: Cc1c(O)c(CN2CCOCC2)c(C)c(O)c1CN1CCOCC1 [sym-DDHQ, 2,5-dimethyl-3,6-bis[(morpholin-4-yl)methyl]benzene-1,4-diol]

Compound: O=C1c2cccc(S(=O)(=O)[O-])c2C(=O)c2cccc(S(=O)(=O)[O-])c21.[Na+].[Na+] [1,5-AQDSNa2, 9,10-dioxo-9,10-dihydroanthracene-1,5-disulfonic acid disodium salt]
Aqueous solubility [2]: 70 mM

solubility (Solubility by gravimetry): 1700 mM (≈ 524 mg/mL)
solubility ([1]; 1 M acid, counter ion ClO4−, aqueous buffer, thermodynamic from solid, 1 M acid, counter ion ClO4−, read-out: Solubility in 1 M acid, ClO4−): 10 mM (≈ 3.08 mg/mL)
solubility ([1]; 1 M acid, counter ion Cl−, thermodynamic from solid, 1 M acid, counter ion Cl−, NMR method, validated by gravimetric analysis, read-out: Solubility in 1 M acid, Cl−): 30 mM (≈ 9.25 mg/mL)
solubility [1, 3]: 530 mM (≈ 163 mg/mL)
solubility [1, 4]: 80 mM (≈ 24.7 mg/mL)
solubility ([1]; 1 M sulfuric acid, one year later, new polymorph, method not given, read-out: Solubility in 1 M sulfuric acid one year later): < 100 mM
Compound: Oc1cc(CN2CCOCC2)c(O)cc1CN1CCOCC1 [DMHQ, 2,5-bis[(morpholin-4-yl)methyl]benzene-1,4-diol]

Compound: O=C1c2ccc(S(=O)(=O)O)cc2C(=O)c2cc(S(=O)(=O)O)ccc21 [2,7-AQDS disodium salt, 9,10-dioxo-9,10-dihydroanthracene-2,7-disulfonic acid]
Aqueous solubility [2]: 580 mM and 740 mM
